Columns and labels:
activated PBMC [1] = test: Comparison of tyrosine kinase inhibitors on targeted LV transduction of activated PBMC; type: cell-based, human; details: 5 h; for effect of TKI on transduction by targeted LVs: 50 nM dasatinib, 1 μM imatinib or 30 μM genistein
[2] = system: CD45+ cells isolated from blood; test: In vivo transduction in PBMC-humanized NSG mice; details: 10 mg/kg dasatinib i.p. one hour prior to CD3-LV i.v., seven days, not statistically significant
Method: For humanization, 1×10^7 ex vivo activated PBMC were transplanted by intravenous (i.v.) tail-vein injection into 8 week old mice. Humanization levels were measured and used for grouping of the mice by flow cytometry from blood taken eleven days post PBMC injection. The following day, 10 mg/kg dasatinib diluted in vehicle (4% DMSO, 33.3% PEG-300, 5% Tween80, 57.7% ddH20) was intraperitoneally (i.p.) administered to the mice, one hour prior to CD3-LV i.v. injection. The animals were sacrificed seven days post vector administration. Blood, spleen and bone marrow were collected and single cell 35 suspensions were prepared and analyzed by flow cytometry. Additionally, genomic DNA was isolated from the single cell suspension and used for vector copy number (VCN) analysis using quantitative polymerase chain reaction (qPCR).

CD25 = type: cell-based, human
[3] = system: freshly isolated PBMC exposed solely to IL-7/15; details: 100 nM dasatinib, day 4 and 7
CD19+Nalm-6 cells = type: cell-based, human; details: effector:target 0.5:1
[4] = system: splenocytes isolated from huNSG mice; type: cell-based, humanized NSG mice; details: CD3-LV(GFP), 50 or 100 nM dasatinib 5 h, three days post transduction
[5] = system: freshly isolated PBMC exposed solely to IL-7/15; type: cell-based, human
human CD3 receptor = type: cell-based; details: 50 or 100 nM dasat., three days post transduction
activated PBMC [6] = type: cell-based, human
activated PBMC [7] = test: Binding of CD3-targeted LVs to activated PBMC (anti-His staining); type: cell-based, human; details: 100 nM dasatinib, 7 h and 24 h after start of treatment
Method: To understand the mechanism behind the transduction enhancing characteristic of dasatinib, fully activated PBMC were incubated with CD3-targeted LVs, as described above, and analyzed via flow cytometry 7, 24 and 72 h after start of incubation with dasatinib and transduction. Cells were stained with anti-His-PE, allowing the detection of L. Vs bound to the cells.

activated PBMC [8] = test: Transduction of fully activated PBMC with targeted LVs in presence of dasatinib (GFP expression, flow cytometry); type: cell-based, human
activated PBMC [9] = system: activated PBMC
Nalm-6 cells = type: cell-based, human
human whole blood = type: cell-based; details: 100 nM dasatinib, five to six days
activated PBMC [10] = test: Vector titers (transducing units/mL) on activated PBMC; type: cell-based, human
Method: Transduction was additionally promoted by the transduction enhancer VF-1. Culture medium without dasatinib and Vectofusin-1 was used for control transductions. Transgene expression in T-cells was evaluated 3 and 7 days post transduction by flow cytometry. […] After spinfection, 100 μL of fresh media, either containing the different dasatinib concentrations or without dasatinib, was added and the cells were cultured at 37° C. The medium was changed to fresh TCM with IL-2 or IL-7/15 without dasatinib 3 h, 5 h or 7 h after start of incubation with dasatinib. The cells were further cultured at 37° C., and analyzed for transgene expression 3-4 and 7 days post transduction by flow cytometry. Vector titers were determined in transducing units per milliliter (T U/mL) from LV dilutions showing linear correlation to the number of transgene-positive cells and calculated using following equation.

With `Cc1nc(Nc2ncc(C(=O)Nc3c(C)cccc3Cl)s2)cc(N2CCN(CCO)CC2)n1` [dasatinib, N-(2-Chloro-6-methylphenyl)-2-[[6-[4-(2-hydroxyethyl)-1-piperazinyl]-2-methyl-4-pyrimidinyl]amino]-5 thiazolecarboxamide] the “increase of transgene expression, transduction with CD3-LV” value (activated PBMC [1]; 50 nM dasatinib or 1 μM bosutinib, GFP three days post transduction) was roughly 4 fold, the “effect of TKI on transduction by targeted LVs” value (“effect of TKI on transduction” for short) (activated PBMC [1]) was “strongest increase” and the “GFP-expression and vector integration in genomic DNA of blood cells in vivo” value [2] was “clear tendency”. The “CD25-expression upon activating antibodies or CD3-LVs in presence of dasatinib” value (CD25) was “did not cause an increase”, the “cell viability of non-activated cells” value [3] was “did not negatively affecT-cell viability” and the “tumor killing (dead target cells) by CAR T cells generated in presence of dasatinib” value (CD19+Nalm-6 cells; 4 h) was “around 40%”. For the same molecule, the “Nalm-6 cells killed by CD19-CAR T cells” value (CD19+Nalm-6 cells; 24 h) was “nearly all”, the “GFP expression of CD45+ splenocytes in presence of dasatinib” value [4] was “around 25%” and the “TR66-LV mediated gene transfer, VF-1 added to dasatinib-treated cells” value ([5]; IL-7/15 only PBMC, 100 nM dasatinib plus VF-1) was 10%. The “improvement of CD3-LV transduction of cytokine-only stimulated T-cells” value ([5]; in presence of dasatinib (summary)) was 7 fold, the “MFI of the CD3 receptor in presence of CD3-LV and dasatinib” value (human CD3 receptor) was “only slightly reduced” and the “CAR transduction in presence of VF-1 with dasatinib” value (activated PBMC [6]) was 13%. The “CAR-expression, CD3-LV transduced cells, dasatinib present” value (activated PBMC [6]) was “up to 10%”, the “amount of CD3-LVs bound to the cells” value (activated PBMC [7]) was “substantially increased” and the “GFP-expression, TR66-LV in presence of dasatinib” value (activated PBMC [8]) was 30%. For the same molecule, the “T-cells transduced by CD3-LVs in presence of dasatinib” value (activated PBMC [8]) was “up to 70%”, the “effect of pretreatment on cell-directed gene transfer using CD3-LVs” value (activated PBMC [8]) was “dramatically increases” and the “effect on CD4-LV transduction” value (activated PBMC [8]) was “slight increase”. For the same molecule, the “effect on transduction by CD8-LV and VSV-LV” value (activated PBMC [8]) was “not affected”, the “increase in transduction (maximum in this setup)” value (activated PBMC [8]) was 3 fold and the “increase in transduction compared to untreated cells” value (activated PBMC [8]) was 1.6 fold. The “increase in transduction compared with Vectofusin-1” value (activated PBMC [8]) was “even stronger than by the transduction enhancer Vectofusin-1”, the “less transduction after short incubation compared to longer incubation time” value (activated PBMC [8]) was 10-35% and the “stability of gene transfer” value (activated PBMC [8]) was “remained stable”. The “transduction enhancement at lowest concentration” value (activated PBMC [8]) was “not sufficient to enhance transduction”, the “transduction for TR66-LV, VF-1 added in presence of dasatinib” value (activated PBMC [8]) was roughly 70% and the “viability in presence of dasatinib compared to untreated cells” value (activated PBMC [9]; activated PBMC, 100 nM dasatinib, day 3 and 7) was “not compromised”. For the same molecule, the “viability of the cells at high dasatinib concentration” value (activated PBMC [9]; dasatinib concentrations above 50 nM, 3 days post transduction) was “dropped slightly”, the “overall CAR expression compared to untreated cells” value (Nalm-6 cells; 50 nM dasatinib during transduction with CD3-LV(CAR)) was “increased” and the “target cell killing by CAR T cells generated in presence of dasatinib” value (Nalm-6 cells; 50 nM dasatinib, day 2 up to day 8, 1:1 ratio) was “complete target cell killing”. The “CAR T cell exhaustion and phenotype markers dependent on dasatinib treatment” value (Nalm-6 cells; day 8 of the killing assay) was “no difference”, the “GFP-expression of CD3+ cells, CD3-LV in presence of dasatinib” value (human whole blood) was “above 2%” and the “increase of titers of CD3-LV(CAR) in presence of dasatinib” value (activated PBMC [10]; CD19 CAR, three days post transduction) was 3-16 fold. The “titers of CD3-LV(GFP) in presence of dasatinib” value (activated PBMC [10]; with dasatinib) was 1e7-1e8 T.U./mL.
In the case of `O=c1c(-c2ccc(O)cc2)coc2cc(O)cc(O)c12` [genistein], the “effect of TKI on transduction” value (activated PBMC [1]) is reported as “slight increase”.
In the case of `Cc1ccc(NC(=O)c2ccc(CN3CCN(C)CC3)cc2)cc1Nc1nccc(-c2cccnc2)n1` [imatinib, 4-[(4-Methylpiperazin-1-yl)methyl]-N-{4-methyl-3-[(4-pyridin-3˜ ylpyrimidin-2-yl)amino]phenyl}benzamid], the “effect of TKI on transduction” value (activated PBMC [1]) is reported as “did not lead to an increase”.

— patent publication US20240207402A1, “MEANS AND METHODS FOR ENHANCING RECEPTOR-TARGETED GENE TRANSFER” (Deutsches Krebsforschungszentrum Stiftung des öffentlichen …, priority 2021, published 2024)
